Results taken from US8816090B2, “Benzisoxazole derivatives” (Pfizer Inc., priority 2005, dated 2014).

Tests used:
Human 5-HT4(d) = target: T1, Human 5-HT4(d) (Homo sapiens, UniProt Q13639); assay: Agonist-induced cAMP elevation in human 5-HT4(d) transfected HEK293 cells; type: cell-based; settings: for Emax: HEK293, cAMP production normalized to the amount produced by 1,000 nM serotonin; for EC50: cAMP elevation (HTRF), human 5-HT4(d) transfected HEK293 cells
T1 construct: expressed in transfected cells
Method: Human 5-HT4(d) transfected HEK293 cells were established in-house. The cells were grown at 37° C. and 5% CO2 in DMEM supplemented with 10% FCS, 20 mM HEPES (pH 7.4), 200 μg/ml hygromycin B (Gibco), 100 units/ml penicillin and 100 μg/ml streptomycin.
The cells were grown to 60-80% confluence. On the previous day before treatment with compounds dialyzed FCS (Gibco) was substituted for normal and the cells were incubated overnight.
Compounds were prepared in 96-well plates (12.5 μl/well). The cells were harvested with PBS/1 mM EDTA, centrifuged and washed with PBS. At the beginning of the assay, cell pellet was resuspended in DMEM supplemented with 20 mM HEPES, 10 μM pargyline (Sigma) and 1 mM 3-isobutyl-1-methylxanthine (Sigma) at the concentration of 1.6×10^5 cells/ml and left for 15 min at room temperature. The reaction was initiated by addition of the cells into plates (12.5 μl/well). After incubation for 15 min at room temperature, 1% Triton X-100 was added to stop the reaction (25 μl/well) and the plates were left for 30 minutes at room temperature. Homogenous time-resolved fluorescence-based cAMP (Schering) detection was made according to the manufacturer's instruction. ARVOsx multilabel counter (Wallac) was used to measure HTRF (excitation 320 nm, emission 665 nm/620 nm, delay time 50 μs, window time 400 μs).
Data was analyzed based on the ratio of fluorescence intensity of each well at 620 nm and 665 nm followed by cAMP quantification using cAMP standard curve. Enhancement of cAMP production elicited by each compound was normalized to the amount of cAMP produced by 1,000 nM serotonin (Sigma).

T1 sequence (Q13639 1-360 isoform Q13639-3): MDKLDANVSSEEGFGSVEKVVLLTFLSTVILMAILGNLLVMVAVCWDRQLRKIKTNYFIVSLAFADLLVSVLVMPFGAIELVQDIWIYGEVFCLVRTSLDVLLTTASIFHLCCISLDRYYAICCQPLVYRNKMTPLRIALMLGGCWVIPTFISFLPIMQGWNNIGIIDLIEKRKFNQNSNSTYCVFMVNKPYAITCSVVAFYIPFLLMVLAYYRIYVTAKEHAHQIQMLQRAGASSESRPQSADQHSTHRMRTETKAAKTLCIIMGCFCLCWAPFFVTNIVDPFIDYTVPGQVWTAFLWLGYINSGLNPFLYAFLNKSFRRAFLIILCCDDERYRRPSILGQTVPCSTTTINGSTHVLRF

O=C(O)C1(CN2CCC(CCOc3noc4cccc(OCC(F)(F)F)c34)CC2)CCOCC1 [Example 7, 4-{[4-(2-{[4-(2,2,2-Trifluoroethoxy)-1,2-benzisoxazol-3-yl]oxy}ethyl)piperidin-1-yl]methyl}tetrahydro-2H-pyran-4-carboxylic acid]
Emax (Human 5-HT4(d)): 35% | EC50 (Human 5-HT4(d)): 48 nM | melting point: 176.6 °C

CC(C)COc1cccc2onc(OCC3CCN(CC4(C(=O)O)CCCC4)CC3)c12 [Example 9, 1-[(4-{[(4-Isobutoxy-1,2-benzisoxazol-3-yl)oxy]methyl}piperidin-1-yl)methyl]cyclopentane-carboxylic acid]
Emax (Human 5-HT4(d)): 36% | EC50 (Human 5-HT4(d)): 2.9 nM | melting point: 156.3 °C

CC(C)COc1cccc2onc(OCC3CCN(CC4(C(=O)O)CCOCC4)CC3)c12 [Example 10, 4-[(4-{[(4-Isobutoxy-1,2-benzisoxazol-3-yl)oxy]methyl}piperidin-1-yl)methyl]tetrahydro-2H-pyran-4-carboxylic acid]
Emax (Human 5-HT4(d)): 45% | EC50 (Human 5-HT4(d)): 3.1 nM | melting point: 153.4 °C

CC(C)COc1cccc2onc(OCC3CCN(CC(C)(C)C(=O)O)CC3)c12 [Example 11, 3-(4-{[(4-Isobutoxy-1,2-benzisoxazol-3-yl)oxy]methyl}piperidin-1-yl)-2,2-dimethylpropanoic acid]
Emax (Human 5-HT4(d)): 29% | EC50 (Human 5-HT4(d)): 1.4 nM | melting point: 123.7 °C

CC(C)COc1cccc2onc(OCC3CCN(CC4(C(=O)O)CCC4)CC3)c12 [Example 12, 1-[(4-{[(4-Isobutoxy-1,2-benzisoxazol-3-yl)oxy]methyl}piperidin-1-yl)methyl]cyclobutanecarboxylic acid]
Emax (Human 5-HT4(d)): 45% | EC50 (Human 5-HT4(d)): 2.3 nM | melting point: 168.8 °C

CC(C)COc1cccc2onc(OCC3CCN(CCC4(C(=O)O)CCOCC4)CC3)c12 [Example 13, 4-[2-(4-{[(4-Isobutoxy-1,2-benzisoxazol-3-yl)oxy]methyl}piperidin-1-yl)ethyl]tetrahydro-2H-pyran-4-carboxylic acid]
Emax (Human 5-HT4(d)): 54% | EC50 (Human 5-HT4(d)): 2.7 nM | melting point: 213.8 °C

CC(C)COc1cccc2onc(OCC3CCN(C[C@H]4CC[C@H](C(=O)O)CC4)CC3)c12 [Example 14, trans-4-[(4-{[(4-Isobutoxy-1,2-benzisoxazol-3-yl)oxy]methyl}piperidin-1-yl)methyl]cyclohexane-carboxylic acid]
Emax (Human 5-HT4(d)): 41% | EC50 (Human 5-HT4(d)): 2 nM | melting point: 103.3 °C

CC(C)COc1cccc2onc(OCCC3CCN(CC4(C(=O)O)CCOCC4)CC3)c12 [Example 15, 4-[(4-{2-[(4-isobutoxy-1,2-benzisoxazol-3-yl)oxy]ethyl}piperidin-1-yl)methyl]tetrahydro-2H-pyran-4-carboxylic acid]
Emax (Human 5-HT4(d)): 32% | EC50 (Human 5-HT4(d)): 39 nM | melting point: 117.8 °C

CC(C)COc1cccc2onc(NCC3CCN(CC4(C(=O)O)CCOCC4)CC3)c12 [Example 16, 4-[(4-{[(4-Isobutoxy-1,2-benzisoxazol-3-yl)amino]methyl}piperidin-1-yl)methyl]tetrahydro-2H-pyran-4-carboxylic acid]
Emax (Human 5-HT4(d)): 55% | EC50 (Human 5-HT4(d)): 1.6 nM | melting point: 178.2 °C

O=C(O)C1(CN2CCC(COc3noc4cccc(OCC5CCC5)c34)CC2)CCCC1 [Example 17, 1-{[4-({[4-(Cyclobutylmethoxy)-1,2-benzisoxazol-3-yl]oxy}methyl)piperidin-1-yl]methyl}cyclo-pentanecarboxylic acid]
Emax (Human 5-HT4(d)): 41% | EC50 (Human 5-HT4(d)): 3.6 nM | melting point: 173.8 °C

O=C(O)C1(CN2CCC(COc3noc4cccc(OCC5CCC5)c34)CC2)CCOCC1 [Example 18, 4-{[4-({[4-(Cyclobutylmethoxy)-1,2-benzisoxazol-3-yl]oxy}methyl)piperidin-1-yl]methyl}tetrahydro-2H-pyran-4-carboxylic acid]
Emax (Human 5-HT4(d)): 52% | EC50 (Human 5-HT4(d)): 2 nM | melting point: 175.5 °C

CC(C)(CN1CCC(COc2noc3cccc(OCC4CCC4)c23)CC1)C(=O)O [Example 19, 3-[4-({[4-(Cyclobutylmethoxy)-1,2-benzisoxazol-3-yl]oxy}methyl)piperidin-1-yl]-2,2-dimethyl-propanoic acid]
Emax (Human 5-HT4(d)): 45% | EC50 (Human 5-HT4(d)): 0.16 nM | melting point: 139.8 °C

O=C(O)C1(CN2CCC(COc3noc4cccc(OCC5CCC5)c34)CC2)CCC1 [Example 20, 1-{[4-({[4-(Cyclobutylmethoxy)-1,2-benzisoxazol-3-yl]oxy}methyl)piperidin-1-yl]methyl}cyclo-butanecarboxylic acid]
Emax (Human 5-HT4(d)): 50% | EC50 (Human 5-HT4(d)): 0.24 nM | melting point: 176.9 °C

O=C(O)C1(CCN2CCC(COc3noc4cccc(OCC5CCC5)c34)CC2)CCOCC1 [Example 21, 4-{2-[4-({[4-(cyclobutylmethoxy)-1,2-benzisoxazol-3-yl]oxy}methyl)piperidin-1-yl]ethyl}tetrahydro-2H-pyran-4-carboxylic acid]
Emax (Human 5-HT4(d)): 61% | EC50 (Human 5-HT4(d)): 5.3 nM | melting point: 223.2 °C

O=C(O)C1(CN2CCC(COc3noc4cccc(OCC5CCCC5)c34)CC2)CCOCC1 [Example 22, 4-{[4-({[4-(Cyclopentylmethoxy)-1,2-benzisoxazol-3-yl]oxy}methyl)piperidin-1-yl]methyl}tetrahydro-2H-pyran-4-carboxylic acid]
Emax (Human 5-HT4(d)): 73% | EC50 (Human 5-HT4(d)): 4.4 nM | melting point: 185.6 °C

O=C(O)C1(CCN2CCC(COc3noc4cccc(OCC5CCCC5)c34)CC2)CCOCC1 [Example 23, 4-{2-[4-({[4-(Cyclopentylmethoxy)-1,2-benzisoxazol-3-yl]oxy}methyl)piperidin-1-yl]ethyl}tetrahydro-2H-pyran-4-carboxylic acid]
Emax (Human 5-HT4(d)): 77% | EC50 (Human 5-HT4(d)): 22 nM | melting point: 212.5 °C

O=C(O)C1(CN2CCC(COc3noc4cccc(OC5CCCC5)c34)CC2)CCOCC1 [Example 24, 4-{[4-({[4-(Cyclopentyloxy)-1,2-benzisoxazol-3-yl]oxy}methyl)piperidin-1-yl]methyl}tetrahydro-2H-pyran-4-carboxylic acid]
Emax (Human 5-HT4(d)): 52% | EC50 (Human 5-HT4(d)): 1.4 nM | melting point: 177.7 °C

O=C(O)C1(CN2CCC(COc3noc4cccc(OC5CCOCC5)c34)CC2)CCCC1 [Example 28, 1-{[4-({[4-(Tetrahydro-2H-pyran-4-yloxy)-1,2-benzisoxazol-3-yl]oxy}methyl)piperidin-1-yl]methyl}-cyclopentanecarboxylic acid]
Emax (Human 5-HT4(d)): 78% | EC50 (Human 5-HT4(d)): 6.6 nM | melting point: 172.9 °C

O=C(O)[C@H]1CC[C@H](CN2CCC(COc3noc4cccc(OC5CCOCC5)c34)CC2)CC1 [Example 29, trans-4-{[4-({[4-(Tetrahydro-2H-pyran-4-yloxy)-1,2-benzisoxazol-3-yl]oxy}methyl)piperidin-1-yl]methyl}cyclohexanecarboxylic acid]
Emax (Human 5-HT4(d)): 70% | EC50 (Human 5-HT4(d)): 11 nM | melting point: 154.6 °C

O=C(O)C1(CN2CCC(COc3noc4cccc(OC5CCOCC5)c34)CC2)CCCCC1 [Example 30, 1-{[4-({[4-(Tetrahydro-2H-pyran-4-yloxy)-1,2-benzisoxazol-3-yl]oxy}methyl)piperidin-1-yl]methyl}-cyclohexanecarboxylic acid]
Emax (Human 5-HT4(d)): 88% | EC50 (Human 5-HT4(d)): 19 nM | melting point: 157.1 °C

OC1(COc2cccc3onc(OCC4CCN(CC5(O)CCOCC5)CC4)c23)CCCC1 [Example 31, 4-({4-[{(4-[(1-Hydroxycyclopentyl)methoxy]-1,2-benzisoxazol-3-yl}oxy)methyl]piperidin-1-yl}-methyl)tetrahydro-2H-pyran-4-ol]
Emax (Human 5-HT4(d)): 31% | EC50 (Human 5-HT4(d)): 27 nM | melting point: 136.5 °C

O=C1CCCC1Oc1cccc2onc(OCC3CCN(CC4(O)CCOCC4)CC3)c12 (stereo not drawn) [Example 38, 2-{[3-({1-[(4-Hydroxytetrahydro-2H-pyran-4-yl)methyl]piperidin-4-yl}methoxy)-1,2-benzisoxazol-4-yl]oxy}cyclopentanone]
Emax (Human 5-HT4(d)): 40% | EC50 (Human 5-HT4(d)): 0.84 nM | melting point: 133.1 °C

O=C(O)[C@H]1CC[C@H](CN2CCC(COc3noc4cccc(O[C@H]5CC[C@@H](O)CC5)c34)CC2)CC1 [Example 44, trans-4-({4-[({4-[(cis-4-Hydroxycyclohexyl)oxy]-1,2-benzisoxazol-3-yl}oxy)methyl]piperidin-1-yl}-methyl)cyclohexanecarboxylic acid]
Emax (Human 5-HT4(d)): 55% | EC50 (Human 5-HT4(d)): 2.4 nM | melting point: 182.7 °C

O=C(O)C1(CN2CCC(COc3noc4cccc(O[C@H]5CC[C@@H](O)CC5)c34)CC2)CCCC1 [Example 45, 1-({4-[({4-[(cis-4-Hydroxycyclohexyl)oxy]-1,2-benzisoxazol-3-yl}oxy)methyl]piperidin-1-yl}methyl)-cyclopentanecarboxylic acid]
Emax (Human 5-HT4(d)): 42% | EC50 (Human 5-HT4(d)): 3.8 nM | melting point: 189.6 °C
